In the NIST ThermoML archive (doi:10.1016/j.jct.2018.08.007):
Values joined by “and” are separate entries in the source; they are usually repeats but may differ in a detail not shown here. Equal values may be shown once.

Experiment: mn = molality of the nth substance listed, in mol/kg
Conditions: 100 kPa, Liquid; for viscosity: Capillary tube (Ostwald / Ubbelohde) method; for mass density: Vibrating tube method

CN(CC(=O)O)C(=N)N [N-amidinosarcasine] + O
Conditions | mass density, 293.15 K [kg/m3] | mass density, 298.15 K [kg/m3] | mass density, 303.15 K [kg/m3] | mass density, 308.15 K [kg/m3] | mass density, 313.15 K | viscosity, 293.15 K [mPa·s] | viscosity, 298.15 K [mPa·s] | viscosity, 303.15 K [mPa·s] | viscosity, 308.15 K [mPa·s] | viscosity, 313.15 K [mPa·s]
m1 = 0.02 | – | – | – | – | – | 1.008 | 0.895 | 0.804 | 0.723 | 0.658
m1 = 0.03 | – | – | – | – | – | 1.011 | 0.898 | 0.806 | 0.727 | 0.659
m1 = 0.0306 | 999.51 | 998.33 | 996.9 | 995.23 | 993.35 kg/m3 | – | – | – | – | –
m1 = 0.04 | 999.9 | 998.72 | 997.28 | 995.6 | 993.7 kg/m3 | 1.014 | 0.901 | 0.808 | 0.729 | 0.662
m1 = 0.0406 | 999.93 | 998.74 | 997.31 | 995.63 | 993.73 kg/m3 | – | – | – | – | –
m1 = 0.0477 | 1000.23 | 999.04 | 997.6 | 995.91 | 994 kg/m3 | – | – | – | – | –
m1 = 0.05 | 1000.33 | 999.13 | 997.69 | 996 | 994.09 kg/m3 | 1.017 | 0.904 | 0.81 | 0.731 | 0.664
m1 = 0.0548 | 1000.53 | 999.33 | 997.89 | 996.2 | 994.28 kg/m3 | – | – | – | – | –
m1 = 0.0564 | 1000.59 | 999.4 | 997.96 | 996.26 | 994.35 kg/m3 | – | – | – | – | –
m1 = 0.0597 | 1000.73 | 999.53 | 998.09 | 996.39 | 994.47 kg/m3 and 994.48 kg/m3 | 1.019 | 0.907 | 0.811 | 0.733 | 0.665
m1 = 0.0675 | 1001.06 | 999.86 | 998.41 | 996.71 | 994.79 kg/m3 | – | – | – | – | –
m1 = 0.0701 | 1001.17 | 999.96 | 998.52 | 996.82 | 994.89 kg/m3 | 1.024 | 0.91 | 0.817 | 0.737 | 0.669
m1 = 0.0727 | 1001.27 | 1000.07 | 998.63 | 996.92 | 995 kg/m3 | – | – | – | – | –
m1 = 0.0782 | 1001.5 | 1000.29 | 998.85 | 997.15 | 995.22 kg/m3 | – | – | – | – | –
m1 = 0.08 | 1001.58 | 1000.37 | 998.93 | 997.22 | 995.3 kg/m3 | 1.028 | 0.913 | 0.818 | 0.738 | 0.67
m1 = 0.0898 | 1001.98 | 1000.77 | 999.34 | 997.63 | 995.71 kg/m3 | – | – | – | – | –
m1 = 0.09 | 1001.99 | 1000.78 | 999.34 | 997.64 | 995.71 kg/m3 | 1.033 | 0.917 | 0.823 | 0.74 | 0.672
m1 = 0.0926 | 1002.1 | 1000.89 | 999.45 | 997.74 | 995.82 kg/m3 | – | – | – | – | –
m1 = 0.1038 | 1002.56 | 1001.35 | 999.92 | 998.21 | 996.3 kg/m3 | – | – | – | – | –
m1 = 0.1113 | 1002.87 | 1001.65 | 1000.23 | 998.53 | 996.62 kg/m3 | – | – | – | – | –
m1 = 0.1207 | 1003.25 | 1002.04 | 1000.62 | 998.93 | 997.03 kg/m3 | – | – | – | – | –
m1 = 0.1287 | 1003.58 | 1002.36 | 1000.96 | 999.26 | 997.39 kg/m3 | – | – | – | – | –
m1 = 0.1326 | 1003.74 | 1002.52 | 1001.12 | 999.43 | 997.56 kg/m3 | – | – | – | – | –

CN1CC(=O)NC1=N [creatinine] + O
Conditions | mass density, 293.15 K [kg/m3] | mass density, 298.15 K [kg/m3] | mass density, 303.15 K [kg/m3] | mass density, 308.15 K [kg/m3] | mass density, 313.15 K [kg/m3] | viscosity, 293.15 K [mPa·s] | viscosity, 298.15 K [mPa·s] | viscosity, 303.15 K [mPa·s] | viscosity, 308.15 K [mPa·s] | viscosity, 313.15 K [mPa·s]
m1 = 0.1001 | 1001.16 | 999.95 | 998.49 | 996.82 | 994.94 | – | – | – | – | –
m1 = 0.147 | 1002.53 | 1001.29 | 999.82 | 998.13 | 996.21 | – | – | – | – | –
m1 = 0.2001 | – | – | – | – | – | 1.053 | 0.935 | 0.837 | 0.755 | 0.685
m1 = 0.202 | 1004.12 | 1002.86 | 1001.37 | 999.64 | 997.69 | – | – | – | – | –
m1 = 0.25 | 1005.5 | 1004.22 | 1002.71 | 1000.97 | 999 | – | – | – | – | –
m1 = 0.2999 | – | – | – | – | – | 1.077 | 0.956 | 0.856 | 0.772 | 0.7
m1 = 0.3023 | 1006.99 | 1005.69 | 1004.16 | 1002.4 | 1000.43 | – | – | – | – | –
m1 = 0.3496 | 1008.33 | 1007.01 | 1005.48 | 1003.7 | 1001.71 | – | – | – | – | –
m1 = 0.3996 | – | – | – | – | – | 1.102 | 0.978 | 0.875 | 0.789 | 0.715
m1 = 0.4028 | 1009.83 | 1008.48 | 1006.94 | 1005.13 | 1003.12 | – | – | – | – | –
m1 = 0.5002 | – | – | – | – | – | 1.126 | 0.999 | 0.894 | 0.806 | 0.73
m1 = 0.5014 | 1012.57 | 1011.2 | 1009.63 | 1007.79 | 1005.76 | – | – | – | – | –
m1 = 0.5514 | 1013.95 | 1012.56 | 1010.97 | 1009.12 | 1007.08 | – | – | – | – | –
m1 = 0.6 | – | – | – | – | – | 1.15 | 1.02 | 0.912 | 0.822 | 0.745
m1 = 0.6018 | 1015.33 | 1013.93 | 1012.34 | 1010.48 | 1008.4 | – | – | – | – | –
m1 = 0.6087 | 1015.52 | 1014.11 | 1012.53 | 1010.65 | 1008.61 | – | – | – | – | –
m1 = 0.6491 | 1016.62 | 1015.21 | 1013.61 | 1011.72 | 1009.65 | – | – | – | – | –
m1 = 0.7 | – | – | – | – | – | 1.173 | 1.04 | 0.93 | 0.838 | 0.759
